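Grown in 96-well plates, cells were treated for 48 hours with each compound at five concentrations. Insufficient inhibition: endpoint recorded as highest concentration tested. At the GI50, growth is halved.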 Activity calls are given as the source filed them. Rule as the data show it: active = GI50 up to about 1.1 µM and inactive = higher.
How the values were obtained:
Assay in all cases: NCI anticancer screen, dose series, 48 h
786-0 = tested on: 786-0
A498 = tested on: A498
A549 = tested on: A549
ACHN = tested on: ACHN
BT-549 = tested on: BT-549
CAKI-1 = tested on: CAKI-1
CCRF-CEM = tested on: CCRF-CEM
COLO 205 = tested on: COLO 205
DU-145 = tested on: DU-145
EKVX = tested on: EKVX
HCC 2998 = tested on: HCC 2998
HCT-116 = tested on: HCT-116
HCT-15 = tested on: HCT-15
HL-60 = tested on: HL-60
HOP-62 = tested on: HOP-62
HOP-92 = tested on: HOP-92
HT-29 = tested on: HT-29
Hs-578T = tested on: Hs-578T
IGROV-1 = tested on: IGROV-1
K562 = tested on: K562
KM12 = tested on: KM12
LOX IMVI = tested on: LOX IMVI
M14 = tested on: M14
MCF7 = tested on: MCF7
MDA-MB-231 = tested on: MDA-MB-231
MDA-MB-435 = tested on: MDA-MB-435
MDA-N = tested on: MDA-N
MOLT-4 = tested on: MOLT-4
Malme-3M = tested on: Malme-3M
NCI-H226 = tested on: NCI-H226
NCI-H23 = tested on: NCI-H23
NCI-H460 = tested on: NCI-H460
NCI-H522 = tested on: NCI-H522
NCI/ADR-RES = tested on: NCI/ADR-RES
OVCAR-3 = tested on: OVCAR-3
OVCAR-4 = tested on: OVCAR-4
OVCAR-5 = tested on: OVCAR-5
OVCAR-8 = tested on: OVCAR-8
PC-3 = tested on: PC-3
RPMI-8226 = tested on: RPMI-8226
RXF 393 = tested on: RXF 393
SF-268 = tested on: SF-268
SF-295 = tested on: SF-295
SF-539 = tested on: SF-539
SK-MEL-28 = tested on: SK-MEL-28
SK-MEL-2 = tested on: SK-MEL-2
SK-MEL-5 = tested on: SK-MEL-5
SK-OV-3 = tested on: SK-OV-3
SN12C = tested on: SN12C
SNB-19 = tested on: SNB-19
SNB-75 = tested on: SNB-75
SR = tested on: SR
SW-620 = tested on: SW-620
T47D = tested on: T47D
TK-10 = tested on: TK-10
U-251 = tested on: U-251
UACC-257 = tested on: UACC-257
UACC-62 = tested on: UACC-62
UO-31 = tested on: UO-31
DLD-1 = tested on: DLD-1
DMS-114 = tested on: DMS-114
KM-20L2 = tested on: KM-20L2
LXFL 529 = tested on: LXFL 529
M19-MEL = tested on: M19-MEL
SNB-78 = tested on: SNB-78

Measured: GI50

CSC12c3cc(C)n(-c4ccc(I)cc4)c3CC(C)(C)CN1C(=O)C2Oc1ccccc1 (configuration not stated)
> 100 µM: HCT-15
inactive: 786-0 > 100 µM | A498 97.5 µM | A549 > 96.4 µM | ACHN > 100 µM | BT-549 > 100 µM | CAKI-1 > 100 µM | CCRF-CEM > 100 µM | COLO 205 > 100 µM | DU-145 > 100 µM | EKVX > 67 µM | HCC 2998 > 100 µM | HCT-116 48.6 µM | HL-60 93.3 µM | HOP-62 > 100 µM | HOP-92 > 100 µM | HT-29 > 100 µM | Hs-578T > 100 µM | IGROV-1 > 100 µM | K562 > 87.1 µM | KM12 > 100 µM | LOX IMVI > 100 µM | M14 > 100 µM | MCF7 14.1 µM | MDA-MB-231 > 100 µM | MDA-MB-435 > 100 µM | MDA-N > 100 µM | MOLT-4 > 63.1 µM | Malme-3M > 100 µM | NCI-H226 > 100 µM | NCI-H23 > 100 µM | NCI-H460 > 100 µM | NCI-H522 > 100 µM | NCI/ADR-RES > 100 µM | OVCAR-3 > 100 µM | OVCAR-4 > 100 µM | OVCAR-5 > 100 µM | OVCAR-8 > 100 µM | PC-3 98.6 µM | RPMI-8226 > 71.1 µM | RXF 393 > 100 µM | SF-268 > 100 µM | SF-295 > 100 µM | SF-539 > 100 µM | SK-MEL-28 > 100 µM | SK-MEL-2 > 100 µM | SK-MEL-5 97.5 µM | SK-OV-3 > 100 µM | SN12C > 100 µM | SNB-19 > 100 µM | SNB-75 > 100 µM | SR > 91.2 µM | SW-620 > 100 µM | T47D 5.97 µM | TK-10 > 100 µM | U-251 > 100 µM | UACC-257 > 66.5 µM | UACC-62 > 100 µM | UO-31 > 100 µM

C=CCc1cc(-c2cc(CC=C)c(O)c(CNCCCl)c2)cc(CNCCCl)c1O
16.4 µM: HCT-15
inactive: 786-0 28.6 µM | A498 18.7 µM | A549 24.3 µM | ACHN 16.5 µM | CCRF-CEM 18.3 µM | COLO 205 17.9 µM | DLD-1 21.5 µM | DMS-114 21.1 µM | HCC 2998 17.3 µM | HCT-116 19.4 µM | HL-60 17.3 µM | HOP-62 18 µM | HOP-92 10.6 µM | HT-29 17.4 µM | IGROV-1 23.6 µM | K562 17.8 µM | KM-20L2 17.5 µM | KM12 17.3 µM | LOX IMVI 15.3 µM | LXFL 529 15.1 µM | M14 18 µM | M19-MEL 17.1 µM | MOLT-4 16.9 µM | Malme-3M 22.2 µM | NCI-H226 18.3 µM | NCI-H23 16 µM | NCI-H460 16.8 µM | NCI-H522 16.9 µM | OVCAR-3 21.4 µM | OVCAR-4 22.9 µM | OVCAR-8 19.9 µM | RPMI-8226 21.4 µM | SF-268 22.6 µM | SF-295 17.5 µM | SK-MEL-28 18.6 µM | SK-MEL-2 19.2 µM | SK-MEL-5 15.3 µM | SN12C 19.8 µM | SNB-19 30 µM | SNB-75 12.3 µM | SNB-78 39.3 µM | SW-620 20.8 µM | TK-10 19.6 µM | U-251 16.6 µM | UACC-257 17.4 µM | UACC-62 14.6 µM | UO-31 14.5 µM

— ChEMBL document CHEMBL1201862, “PubChem BioAssay data set” (2004)
